The numbers were not newly measured in US20100292280A1, “ANTI-PYRETIC VASODILATORS” (priority 2007, published 2010), which cites them from elsewhere.

The subject of series [1] is forearm and dorsum of the foot skin of healthy subjects and diabetic neuropathic patients.
The subject of another series is healthy adults. Particulars: ingestion of 5 mg niacin per Kg body weight.
Another series has as its system skin. To be noted: doses of niacin over 50 mg.

Structures are written as SMILES.

Turning to `COC(=O)c1cccnc1` [methyl nicotinate], the “vasodilatory response compared to the acetylcholine and sodium nitroprusside responses” value in series [1] (control group, foot) was “higher”. In addition, the “vasodilatory response, comparison between agents” value in series [1] (control group, forearm) was “similar”. In addition, the “maximal vasodilatory response, comparison between agents” value in series [1] (diabetic patients, forearm and foot level) was “similar”. Besides, in series [1] (topical 1% methyl nicotinate), the “time after application at which vasodilation was present” value is 5 min, the “time of decline of vasodilation to pre-application levels” value is 120 min and the “time of peak vasodilation” value is 15 to 30 min.
Regarding `O=C(O)c1cccnc1` [niacin, nicotinic acid], in the series on healthy adults, the “duration of the decrease of core body temperature” value was “about 70 minutes”; the “time at which the sharp decrease in body temperature begins, after oral ingestion” value was “about 20 minutes”; the “time of the peak of continuous temperature reduction, after ingestion” value was “about 50 minutes”; the “undesired side effect reported by a significant portion of the subjects” value is reported as “sever hypotension”. Moreover, in the series with healthy adults (on average), the “decrease of core body temperature” value is 0.44 °C. In addition, the “duration of flushing of the skin” value in the series on skin is “about 60 minutes”.
